Laboratory results: paper PMC11963559, “Identification of novel thiazole derivatives as flaviviral protease inhibitors effective against Dengue (DENV2) and Japanese encephalitis viruses” (Antimicrobial Agents and Chemotherapy, 2025)

What was measured:
[1] = tested on: DENV2; assay: DENV2 progeny virus titer in BHK-21 supernatant (TCID50 assay); type: cell-based; settings: Dengue virus, DENV2, BHK-21, read-out: IC50 of viral titer reduction (called TCID50 in the source)
Description: To this end, we assessed the antiviral activity of shortlisted compounds by evaluating their ability to inhibit progeny virus production. BHK-21 cells were infected with DENV2 and JEV (MOI: 0.1) in the presence of different concentrations of 3aq or 3au or with DMSO, and viral titer was determined in the supernatants harvested at 18 hpi. Compound 3aq caused the maximum reduction of viral titer showing TCID50 of 5.18 ± 0.87 and 2.29 ± 0.50 µM against DENV2 and JEV, respectively (Fig. 8B and D).
During DENV2 and JEV infection, the viral supernatant was collected and used in the TCID50 assay to determine the viral titer. Then, 3 × 10^4 BHK-21 cells per well were seeded in a 96-well cell culture microtiter plate the day before titration. The virus stock was diluted with infection media (DMEM + 2% FBS) to attain virus dilutions of 1 × 10^−2 to 6.4 × 10^−7 in 12 parallels, with the last column of the 96-well plate serving as virus-free cell control. On the day of the assay, when the cell had reached 90%–95% confluency, the growth medium was aspirated using a multichannel pipette, and 100 µL of virus inoculum of different dilutions was transferred to each well, keeping the last well only in infection media without virus. The cells were then incubated at 37 °C in a humidified 5% CO2 chamber. […] TCID50 was calculated using the Spearman and Karber methods.

[2] = tested on: JEV; assay: Time course of JEV genomic RNA accumulation in BHK-21 cells (qRT-PCR); type: cell-based; settings: JEV MOI 0.1, BHK-21, 10 µM; for effect on viral genomic RNA abundance at early time points: 1 and 9 hpi; for effect on viral genomic RNA abundance at later time point: 18 hpi
Source text: This is because the initial translation of the viral RNA genome leads to the production of a viral polyprotein, which upon processing by the NS2B–NS3 protease, leads to the generation of viral RdRp (NS5) and other NS proteins necessary for RNA synthesis ([15]). Thus, inhibition of the NS2B–NS3 protease by the two potential compounds should affect viral genomic RNA accumulation within infected cells only at later time points post-infection ([46]). To validate this hypothesis, we assessed the effect of the compounds upon dynamic accumulation of viral RNA at different times of post-infection. Cells were infected with the virus in the absence or presence of 3aq or 3au (10 µM) and harvested at different time points post-infection, and viral genomic RNA copies were estimated using qRT-PCR. […] As expected, the abundance of viral genomic RNA remained low at the early time points of infection (1 and 9 hpi) and subsequently peaked at 18 hpi (Fig. 9B). […] This is an indirect effect of NS2B–NS3 protease inhibition, which in turn blocks polyprotein processing and assembly of the viral RNA synthesis machinery.
Fig 9 Detailed molecular mechanism of the inhibitory action of the compounds. (A and B) BHK-21 cells were infected with JEV virus (MOI = 0.1) for 1, 9, and 18 h with or without 10 µM of compounds. Total RNA extracted at indicated times was evaluated by qRT-PCR. The data are expressed as fold changes of the viral RNA levels normalized to GAPDH control relative to the corresponding DMSO treated samples at each time point. (B) Same experiment as in (A) but expressed as relative to the initial inoculation amount (at 1 hpi). BHK-21 cells were infected with JEV (MOI: 0.1) and treated with 3au (C) and 3aq (D) pre + during + post (−3), during + post (0), and post (3, 6, 9) infection. Viral RNA load were assessed at 24 hpi using qRT-PCR. The data are expressed as fold changes of the viral RNA levels normalized to GAPDH control relative to the corresponding DMSO-treated sample. Each experiment is performed in biological triplicate and repeated thrice. Statistical significance was analyzed by two-tailed equal variance Student’s t-test: *P < 0.05, **P < 0.01, ***P < 0.001, and ****P < 0.0001.
To quantify the viral RNA copy number, quantitative RT-PCR (qRT-PCR) was performed in duplicate using iTaq Universal SYBR Green Supermix (Bio-Rad). The cDNAs used for qPCR analysis were prepared using Power SYBR Green PCR Master Mix (Bio-Rad, #172–5125) in a QuantStudio5 Applied Biosystems real-time PCR system. […] Delta Ct for both control and compound-treated samples was determined and subsequently analyzed by determining the delta Ct to determine the mRNA expression of target genes in control vs treated samples.

| Compound | IC50 [1] | effect on viral genomic RNA abundance at early time points [2] | effect on viral genomic RNA abundance at later time point [2] |
| --- | --- | --- | --- |
| COc1ccc(-c2csc(N/N=C(\C)c3ccc(O)cc3)n2)cc1 [3aq] | 5.18 ± 0.87 µM | no effect | drastic effect |
| COc1ccc(-c2csc(N/N=C(\C)c3cc(O)cc(O)c3)n2)cc1 [3au] | 7.58 ± 1.02 µM | no effect | drastic effect |
